# In ChEMBL document CHEMBL1201862, “PubChem BioAssay data set” (2004):
#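 Five concentrations, 48 hours, 96-well plates. At the GI50, growth is halved.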 The source made the active and inactive calls. No stated cut-off is given here; in the data, active = GI50 up to about 1.1 µM and inactive = higher.
# Experiments:
# Test in all cases: inhibition of tumour cell growth, NCI panel, 48 h
# HCT-15 = system: HCT-15
# HOP-92 = system: HOP-92
# SF-295 = system: SF-295
# K562 = system: K562
# NCI-H460 = system: NCI-H460
# SR = system: SR
# NCI-H226 = system: NCI-H226
# HCC 2998 = system: HCC 2998
# CAKI-1 = system: CAKI-1
# SN12C = system: SN12C
# Malme-3M = system: Malme-3M
# SW-620 = system: SW-620
# IGROV-1 = system: IGROV-1
# MCF7 = system: MCF7
# HOP-62 = system: HOP-62
# LOX IMVI = system: LOX IMVI
# U-251 = system: U-251
# BT-549 = system: BT-549
# EKVX = system: EKVX
# SF-268 = system: SF-268
# CCRF-CEM = system: CCRF-CEM
# 786-0 = system: 786-0
# MDA-MB-435 = system: MDA-MB-435
# PC-3 = system: PC-3
# ACHN = system: ACHN
# SF-539 = system: SF-539
# HCT-116 = system: HCT-116
# RXF 393 = system: RXF 393
# KM12 = system: KM12
# A549 = system: A549
# OVCAR-5 = system: OVCAR-5
# NCI/ADR-RES = system: NCI/ADR-RES
# MOLT-4 = system: MOLT-4
# HL-60 = system: HL-60
# SNB-19 = system: SNB-19
# OVCAR-4 = system: OVCAR-4
# A498 = system: A498
# HT-29 = system: HT-29
# MDA-MB-231 = system: MDA-MB-231
# NCI-H522 = system: NCI-H522
# DU-145 = system: DU-145
# COLO 205 = system: COLO 205
# OVCAR-3 = system: OVCAR-3
# MDA-N = system: MDA-N
# Hs-578T = system: Hs-578T
# OVCAR-8 = system: OVCAR-8
# RPMI-8226 = system: RPMI-8226
# NCI-H23 = system: NCI-H23
# SK-MEL-28 = system: SK-MEL-28
# UACC-257 = system: UACC-257
# SK-MEL-5 = system: SK-MEL-5
# UO-31 = system: UO-31
# TK-10 = system: TK-10
# SNB-75 = system: SNB-75
# SK-MEL-2 = system: SK-MEL-2
# M14 = system: M14
# T47D = system: T47D
# SK-OV-3 = system: SK-OV-3
smiles,measurement,setting,value
O=C(NCCc1ccccc1)c1c(O)nc2ccccc2c1O,GI50,HCT-15,> 100 µM
same,GI50,HOP-92,> 100 µM (inactive)
same,GI50,SF-295,> 100 µM (inactive)
same,GI50,K562,> 100 µM (inactive)
same,GI50,NCI-H460,> 100 µM (inactive)
same,GI50,SR,> 100 µM (inactive)
same,GI50,NCI-H226,> 100 µM (inactive)
same,GI50,HCC 2998,> 100 µM (inactive)
same,GI50,CAKI-1,> 100 µM (inactive)
same,GI50,SN12C,> 100 µM (inactive)
same,GI50,Malme-3M,> 100 µM (inactive)
same,GI50,SW-620,> 100 µM (inactive)
same,GI50,IGROV-1,> 100 µM (inactive)
same,GI50,MCF7,> 100 µM (inactive)
same,GI50,HOP-62,> 100 µM (inactive)
same,GI50,LOX IMVI,> 100 µM (inactive)
same,GI50,U-251,> 100 µM (inactive)
same,GI50,BT-549,> 100 µM (inactive)
same,GI50,EKVX,> 100 µM (inactive)
same,GI50,SF-268,> 100 µM (inactive)
same,GI50,CCRF-CEM,> 100 µM (inactive)
same,GI50,786-0,> 100 µM (inactive)
same,GI50,MDA-MB-435,> 100 µM (inactive)
same,GI50,PC-3,> 100 µM (inactive)
same,GI50,ACHN,> 100 µM (inactive)
same,GI50,SF-539,> 100 µM (inactive)
same,GI50,HCT-116,> 100 µM (inactive)
same,GI50,RXF 393,> 100 µM (inactive)
same,GI50,KM12,> 100 µM (inactive)
same,GI50,A549,> 100 µM (inactive)
same,GI50,OVCAR-5,> 100 µM (inactive)
same,GI50,NCI/ADR-RES,> 100 µM (inactive)
same,GI50,MOLT-4,> 100 µM (inactive)
same,GI50,HL-60,> 100 µM (inactive)
same,GI50,SNB-19,> 100 µM (inactive)
same,GI50,OVCAR-4,> 100 µM (inactive)
same,GI50,A498,> 100 µM (inactive)
same,GI50,HT-29,> 100 µM (inactive)
same,GI50,MDA-MB-231,> 100 µM (inactive)
same,GI50,NCI-H522,> 100 µM (inactive)
same,GI50,DU-145,> 100 µM (inactive)
same,GI50,COLO 205,> 100 µM (inactive)
same,GI50,OVCAR-3,> 100 µM (inactive)
same,GI50,MDA-N,> 100 µM (inactive)
same,GI50,Hs-578T,> 100 µM (inactive)
same,GI50,OVCAR-8,> 100 µM (inactive)
same,GI50,RPMI-8226,> 100 µM (inactive)
same,GI50,NCI-H23,> 100 µM (inactive)
same,GI50,SK-MEL-28,> 100 µM (inactive)
same,GI50,UACC-257,> 100 µM (inactive)
same,GI50,SK-MEL-5,> 100 µM (inactive)
same,GI50,UO-31,> 100 µM (inactive)
same,GI50,TK-10,> 100 µM (inactive)
same,GI50,SNB-75,> 100 µM (inactive)
C=CCn1c(-c2cc(C(C)(C)C)c(O)c(C(C)(C)C)c2)cs/c1=N\C(P(=O)(O)O)P(=O)(O)O,GI50,HCT-15,> 100 µM
same,GI50,HOP-92,> 100 µM (inactive)
same,GI50,SF-295,> 100 µM (inactive)
same,GI50,K562,> 100 µM (inactive)
same,GI50,NCI-H460,> 100 µM (inactive)
same,GI50,SR,> 100 µM (inactive)
same,GI50,SK-MEL-2,> 100 µM (inactive)
same,GI50,NCI-H226,> 100 µM (inactive)
same,GI50,HCC 2998,> 100 µM (inactive)
same,GI50,CAKI-1,> 100 µM (inactive)
same,GI50,SN12C,> 100 µM (inactive)
same,GI50,Malme-3M,> 100 µM (inactive)
same,GI50,M14,> 100 µM (inactive)
same,GI50,SW-620,> 100 µM (inactive)
same,GI50,IGROV-1,> 100 µM (inactive)
same,GI50,MCF7,> 100 µM (inactive)
same,GI50,HOP-62,> 100 µM (inactive)
same,GI50,U-251,> 100 µM (inactive)
same,GI50,BT-549,> 100 µM (inactive)
same,GI50,EKVX,> 100 µM (inactive)
same,GI50,SF-268,> 100 µM (inactive)
same,GI50,786-0,36.8 µM (inactive)
same,GI50,MDA-MB-435,> 100 µM (inactive)
same,GI50,PC-3,> 100 µM (inactive)
same,GI50,ACHN,> 100 µM (inactive)
same,GI50,SF-539,> 100 µM (inactive)
same,GI50,HCT-116,14.7 µM (inactive)
same,GI50,KM12,83 µM (inactive)
same,GI50,A549,> 100 µM (inactive)
same,GI50,OVCAR-5,> 100 µM (inactive)
same,GI50,NCI/ADR-RES,> 100 µM (inactive)
same,GI50,T47D,> 100 µM (inactive)
same,GI50,SK-OV-3,> 100 µM (inactive)
same,GI50,MOLT-4,> 100 µM (inactive)
same,GI50,HL-60,19.9 µM (inactive)
same,GI50,SNB-19,> 100 µM (inactive)
same,GI50,OVCAR-4,> 100 µM (inactive)
same,GI50,A498,> 100 µM (inactive)
same,GI50,HT-29,> 100 µM (inactive)
same,GI50,MDA-MB-231,35.2 µM (inactive)
same,GI50,DU-145,> 100 µM (inactive)
same,GI50,COLO 205,> 100 µM (inactive)
same,GI50,OVCAR-3,> 100 µM (inactive)
same,GI50,Hs-578T,> 100 µM (inactive)
same,GI50,OVCAR-8,> 100 µM (inactive)
same,GI50,RPMI-8226,> 100 µM (inactive)
same,GI50,NCI-H23,> 100 µM (inactive)
same,GI50,SK-MEL-28,> 100 µM (inactive)
same,GI50,UO-31,> 100 µM (inactive)
same,GI50,TK-10,> 100 µM (inactive)
same,GI50,SNB-75,> 100 µM (inactive)
